Laboratory results from US11168083B2, “Inhibitors of Plasma Kallikrein and uses thereof” (Takeda Pharmaceutical Company Limited, priority 2017, dated 2021).

Target: human activated kallikrein enzyme (Homo sapiens (Human), UniProt P03952)
Experiment: Inhibition of human activated kallikrein enzyme, fluorogenic peptide substrate assay (two formats)
Format: biochemical
Conditions: Table 2; column head prints nM, ranges defined in μM; read-out: pKal EC50
Procedure: The example compounds were evaluated for inhibition of the human activated kallikrein enzyme in two formats of an assay employing a fluorogenic peptide substrate. In one assay format, the concentrations of reagents were as follows: 20 mM Tris pH 7.5, 1 mM EDTA, 150 mM sodium chloride, 0.1% PEG-400, 0.1% Triton X-100, 500 pM activated kallikrein enzyme, 300 uM Pro-Phe-Arg-7-amido-4-methylcoumarin substrate. Prior to reaction initiation with substrate, enzyme and inhibitors were preincubated for 30 min at room temperature. After initiation with substrate, reactions were incubated for 10 min at room temperature and fluorescence emission at 460 nm from 380 nm excitation measured with a microplate reader. In another assay format, the concentrations of reagents were as follows: 20 mM Tris pH 7.5, 1 mM EDTA, 150 mM sodium chloride, 0.1% PEG-400, 0.1% Triton X-100, 5 pM activated kallikrein enzyme, 300 uM Pro-Phe-Arg-7-amido-4-methylcoumarin substrate. Prior to reaction initiation with substrate, enzyme and inhibitors were preincubated for 30 min at room temperature. After initiation with substrate, reactions were incubated for 18 hr at room temperature and fluorescence emission at 460 nm from 380 nm excitation measured with a microplate reader.

human activated kallikrein enzyme, sequence (P03952 391-638): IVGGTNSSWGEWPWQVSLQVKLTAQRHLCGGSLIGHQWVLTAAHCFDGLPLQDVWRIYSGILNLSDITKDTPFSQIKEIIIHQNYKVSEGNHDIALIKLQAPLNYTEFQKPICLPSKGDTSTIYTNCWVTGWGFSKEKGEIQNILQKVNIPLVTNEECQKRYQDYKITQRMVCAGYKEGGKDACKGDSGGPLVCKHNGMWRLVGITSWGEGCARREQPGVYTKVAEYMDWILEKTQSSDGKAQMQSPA
human activated kallikrein enzyme, sequence (P03952 20-390 partner): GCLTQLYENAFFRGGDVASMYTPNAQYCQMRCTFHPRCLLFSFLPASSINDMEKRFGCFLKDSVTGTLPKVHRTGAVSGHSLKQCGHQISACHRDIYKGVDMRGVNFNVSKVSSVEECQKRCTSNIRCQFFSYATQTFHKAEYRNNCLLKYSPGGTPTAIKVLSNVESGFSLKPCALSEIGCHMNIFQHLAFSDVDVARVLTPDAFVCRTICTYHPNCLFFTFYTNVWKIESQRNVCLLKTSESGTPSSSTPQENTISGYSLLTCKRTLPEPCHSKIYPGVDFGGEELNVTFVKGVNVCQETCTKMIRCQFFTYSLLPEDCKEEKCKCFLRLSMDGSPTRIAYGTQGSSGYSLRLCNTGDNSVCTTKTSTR

SMILES | EC50 [nM]
CNC(=O)[C@@H](CCCCNC(=N)N)NC(=O)c1csc([C@H]2CCCN2C(=O)c2cn3cc(Cl)ccc3n2)n1 [Compound 4, 2-((R)-1-(6-Chloroimidazo[1,2-a]pyridine-2-carbonyl)pyrrolidin-2-yl)-N—((R)-6-guanidino-1-(methylamino)-1-oxohexan-2-yl)thiazole-4-carboxamide] | > 9900
CNC(=O)[C@H](CCCCNC(=N)N)NC(=O)c1csc([C@H]2C[C@@H](NC(C)=O)CN2C(=O)c2cn3cc(Cl)ccc3n2)n1 [Compound 5, 2-((2R,4R)-4-acetamido-1-(6-chloroimidazo[1,2-a]pyridine-2-carbonyl)pyrrolidin-2-yl)-N—((S)-6-guanidino-1-(methylamino)-1-oxohexan-2-yl)thiazole-4-carboxamide] | > 9900
CNC(=O)[C@H](CCCCNC(=N)N)NC(=O)c1csc([C@H]2C[C@H](O)CN2C(=O)c2cn3cc(Cl)ccc3n2)n1 [Compound 7, 2-((2R,4S)-1-(6-Chloroimidazo[1,2-a]pyridine-2-carbonyl)-4-hydroxypyrrolidin-2-yl)-N—((S)-6-guanidino-1-(methylamino)-1-oxohexan-2-yl)thiazole-4-carboxamide] | > 9900
CNC(=O)[C@@H](CCCCNC(=N)N)NC(=O)c1csc([C@H]2C[C@H](O)CN2C(=O)c2cn3cc(Cl)ccc3n2)n1 [Compound 8, 2-((2R,4S)-1-(6-Chloroimidazo[,1,2-a]pyridine-2-carbonyl)-4-hydroxypyrrolidin-2-yl)-N—((R)-6-guanidino-1-(methylamino)-1-oxohexan-2-yl)thiazole-4-carboxamide] | > 9900
CNC(=O)[C@H](CCCCNC(=N)N)NC(=O)c1csc([C@H]2C[C@@H](O)CN2C(=O)c2cn3cc(Cl)ccc3n2)n1 [Compound 9, 2-((2R,4R)-1-(6-Chloroimidazo[1,2-a]pyridine-2-carbonyl)-4-hydroxypyrrolidin-2-yl)-N—((S)-6-guanidino-1-(methylamino)-1-oxohexan-2-yl)thiazole-4-carboxamide] | > 9900
CNC(=O)[C@@H](CCCCNC(=N)N)NC(=O)c1csc([C@H]2C[C@@H](O)CN2C(=O)c2cn3cc(Cl)ccc3n2)n1 [Compound 10, 2-((2R,4R)-1-(6-Chloroimidazo[1,2-a]pyridine-2-carbonyl)-4-hydroxypyrrolidin-2-yl)-N—((R)-6-guanidino-1-(methylamino)-1-oxohexan-2-yl)thiazole-4-carboxamide] | > 9900
CNC(=O)[C@H](CCCCNC(=N)N)NC(=O)c1csc([C@@H]2C[C@@H](N)CN2C(=O)c2cn(C)c(C)n2)n1 [Compound 14, 2-((2S,4R)-4-amino-1-(1,2-dimethyl-1H-imidazole-4-carbonyl)pyrrolidin-2-yl)-N—((S)-6-guanidino-1-(methylamino)-1-oxohexan-2-yl)thiazole-4-carboxamide] | > 9900
CNC(=O)[C@H](CCCCNC(=N)N)NC(=O)c1csc([C@@H]2C[C@@H](N)CN2C(=O)c2ccccc2)n1 [Compound 15, 2-((2S,4R)-4-amino-1-benzoylpyrrolidin-2-yl)-N—((S)-6-guanidino-1-(methylamino)-1-oxohexan-2-yl)thiazole-4-carboxamide] | > 9900
CNC(=O)[C@H](CCCCNC(=N)N)NC(=O)c1csc([C@@H]2C[C@@H](N)CN2C(=O)C2CCCCC2)n1 [Compound 17, 2-((2S,4R)-4-amino-1-(cyclohexanecarbonyl)pyrrolidin-2-yl)-N—((S)-6-guanidino-1-(methylamino)-1-oxohexan-2-yl)thiazole-4-carboxamide] | > 9900
CNC(=O)[C@H](CCCCNC(=N)N)NC(=O)c1csc([C@@H]2C[C@@H](N)CN2C(=O)C(C)C)n1 [Compound 18, 2-((2S,4R)-4-amino-1-isobutyrylpyrrolidin-2-yl)-N—((S)-6-guanidino-1-(methylamino)-1-oxohexan-2-yl)thiazole-4-carboxamide] | > 9900
CNC(=O)[C@H](CCCCN)NC(=O)c1csc([C@@H]2C[C@@H](N)CN2C(=O)c2cn3cc(Cl)ccc3n2)n1 [Compound 25, 2-((2S,4R)-4-amino-1-(6-chloroimidazo[1,2-a]pyridine-2-carbonyl)pyrrolidin-2-yl)-N—((S)-6-amino-1-(methylamino)-1-oxohexan-2-yl)thiazole-4-carboxamide] | > 9900

Further lines, results first:

EC50 [nM] | SMILES
1000 to 5000 | CNC(=O)[C@H](CCCCNC(=N)N)NC(=O)c1csc([C@H]2C[C@@H](N)CN2C(=O)c2cn3cc(Cl)ccc3n2)n1 [Compound 1, 2-((2R,4R)-4-amino-1-(6-chloroimidazo[1,2-a]pyridine-2-carbonyl)pyrrolidin-2-yl)-N—((S)-6-guanidino-1-(methylamino)-1-oxohexan-2-yl)thiazole-4-carboxamide]
> 9900 | CNC(=O)[C@@H](CCCCNC(=N)N)NC(=O)c1csc([C@H]2C[C@@H](N)CN2C(=O)c2cn3cc(Cl)ccc3n2)n1 [Compound 2, 2-((2R,4R)-4-amino-1-(6-chloroimidazo[1,2-a]pyridine-2-carbonyl)pyrrolidin-2-yl)-N—((R)-6-guanidino-1-(methylamino)-1-oxohexan-2-yl)thiazole-4-carboxamide]
> 9900 | CNC(=O)[C@H](CCCCNC(=N)N)NC(=O)c1csc([C@H]2CCCN2C(=O)c2cn3cc(Cl)ccc3n2)n1 [Compound 3, 2-((R)-1-(6-Chloroimidazo[1,2-a]pyridine-2-carbonyl)pyrrolidin-2-yl)-N—((S)-6-guanidino-1-(methylamino)-1-oxohexan-2-yl)thiazole-4-carboxamide]
1000 to 5000 | CNC(=O)[C@H](CCCCNC(=N)N)NC(=O)c1csc([C@H]2C[C@H](N)CN2C(=O)c2cn3cc(Cl)ccc3n2)n1 [Compound 6, 2-((2R,4S)-4-amino-1-(6-chloroimidazo[1,2-a]pyridine-2-carbonyl)pyrrolidin-2-yl)-N—((S)-6-guanidino-1-(methylamino)-1-oxohexan-2-yl)thiazole-4-carboxamide]
≤ 100 | CNC(=O)[C@@H](CCCCNC(=N)N)NC(=O)c1csc([C@@H]2C[C@@H](N)CN2C(=O)c2cn3cc(Cl)ccc3n2)n1 [Compound 12, 2-((2S,4R)-4-amino-1-(6-chloroimidazo[1,2-a]pyridine-2-carbonyl)pyrrolidin-2-yl)-N—((R)-6-guanidino-1-(methylamino)-1-oxohexan-2-yl)thiazole-4-carboxamide]
100 to 1000 | CNC(=O)[C@H](CCCCNC(=N)N)NC(=O)c1csc([C@@H]2C[C@@H](N)CN2C(=O)c2cn3ccccc3n2)n1 [Compound 13, 2-((2S,4R)-4-amino-1-(imidazo[1,2-a]pyridine-2-carbonyl)pyrrolidin-2-yl)-N—((S)-6-guanidino-1-(methylamino)-1-oxohexan-2-yl)thiazole-4-carboxamide]
1000 to 5000 | CNC(=O)[C@H](CCCCNC(=N)N)NC(=O)c1csc([C@@H]2C[C@@H](N)CN2C(=O)OCc2cccc(Cl)c2)n1 [Compound 16, 3-chlorobenzyl (2S,4R)-4-amino-2-(4-(((S)-6-guanidino-1-(methylamino)-1-oxohexan-2-yl)carbamoyl)thiazol-2-yl)pyrrolidine-1-carboxylate]
≤ 100 | CNC(=O)[C@H](CCCCNC(=N)N)NC(=O)c1csc([C@@H]2C[C@@H](N)CN2C(=O)c2cn3cc(C(F)(F)F)ccc3n2)n1 [Compound 19, 2-((2S,4R)-4-amino-1-(6-(trifluoromethyl)imidazo[1,2-a]pyridine-2-carbonyl)pyrrolidin-2-yl)-N—((S)-6-guanidino-1-(methylamino)-1-oxohexan-2-yl)thiazole-4-carboxamide]
100 to 1000 | CNC(=O)[C@H](CCCCNC(=N)N)NC(=O)c1csc([C@@H]2C[C@@H](N)CN2C(=O)c2cn3cc(OC)ccc3n2)n1 [Compound 20, 2-((2S,4R)-4-amino-1-(6-methoxyimidazo[1,2-a]pyridine-2-carbonyl)pyrrolidin-2-yl)-N—((S)-6-guanidino-1-(methylamino)-1-oxohexan-2-yl)thiazole-4-carboxamide]
≤ 100 | CNC(=O)[C@H](CCCCNC(=N)N)NC(=O)c1csc([C@@H]2C[C@@H](N)CN2C(=O)c2cn3cc(I)ccc3n2)n1 [Compound 21, 2-((2S,4R)-4-amino-1-(6-iodoimidazo[1,2-a]pyridine-2-carbonyl)pyrrolidin-2-yl)-N—((S)-6-guanidino-1-(methylamino)-1-oxohexan-2-yl)thiazole-4-carboxamide]
≤ 100 | N=C(N)NCCCC[C@H](NC(=O)c1csc([C@@H]2C[C@@H](N)CN2C(=O)c2cn3cc(Cl)ccc3n2)n1)C(N)=O [Compound 22, 2-((2S,4R)-4-amino-1-(6-chloroimidazo[1,2-a]pyridine-2-carbonyl)pyrrolidin-2-yl)-N—((S)-1-amino-6-guanidino-1-oxohexan-2-yl)thiazole-4-carboxamide]
≤ 100 | N=C(N)NCCCC[C@H](NC(=O)c1csc([C@@H]2C[C@@H](N)CN2C(=O)c2cn3cc(Cl)ccc3n2)n1)C(=O)O [Compound 23, N^2-(2-((2S,4R)-4-amino-1-(6-chloroimidazo[1,2-a]pyridine-2-carbonyl)pyrrolidin-2-yl)thiazole-4-carbonyl)-N6-carbamimidoyl-L-lysine]
100 to 1000 | CN(C)C(=O)[C@H](CCCCNC(=N)N)NC(=O)c1csc([C@@H]2C[C@@H](N)CN2C(=O)c2cn3cc(Cl)ccc3n2)n1 [Compound 24, 2-((2S,4R)-4-amino-1-(6-chloroimidazo[1,2-a]pyridine-2-carbonyl)pyrrolidin-2-yl)-N—((S)-1-(dimethylamino)-6-guanidino-1-oxohexan-2-yl)thiazole-4-carboxamide]
